Test results taken from patent US20230217926A1, “SELECTIVE HERBICIDES BASED ON SUBSTITUTED ISOXAZOLIN CARBOXAMIDES AND ISOXADIFEN-ETHYL” (BAYER AKTIENGESELLSCHAFT, priority 2020, published 2023).

Assays:
[1] = tested on: TRZAS Triso; test: Safener seed treatment, pre-emergence herbicide, crop damage; type: in vivo, spring wheat; parameters: key to Reduction [Difference]: % crop damage without safener minus % damage with safener; conditions: HER 15 g a.i./ha pre-emergence; for Reduction [%] / Reduction [Difference]: isoxadifen-ethyl 0.25 g a.i./kg seed; for HER effect + SAF: isoxadifen-ethyl seed treatment 0.25 g a.i./kg seed; for HER effect: no safener
Procedure: (§1) For the safener seed treatment, sufficient seeds of the respective crops (spring wheat, TRZAS; spring barley, HORVS; maize, ZEAMA) were weighed into screw top glass bottles approximately twice the volume of the seeds.
(§2) The specified safeners, formulated as wettable powder (WP) were weighed out so that the specified rates (g a.i./kg seed) would be obtained, dissolved in water (1 ml water per 10 g of seeds), and added to the seeds to produce a slurry.
(§3) The bottles were capped and then placed in an overhead shaker (set at medium speed for ca. 60 minutes) so that the seeds were evenly coated with the slurry. The bottles were uncapped and the seeds were either placed on paper and dried for an interval of 3-4 hours prior to sowing, or directly sown. Seeds were placed in sandy loam soil in pots of a diameter of 7-8 cm, and covered with soil.
(§4) Pre-emergence application of the specified herbicides was done subsequently, on two sets of plants: a) seed treatment with safener, as described above
(§5) The herbicides were formulated as WP and was sprayed onto the soil surface as an aqueous suspension at an equivalent water application rate of 300 l/ha.
(§6) After application, the test plants were kept in the greenhouse under good growth conditions. At intervals up to 4 weeks after application (=28 days after treatment; DAT), % crop damage observed on the treated plants was scored visually in comparison to control plants that had not received any safener or herbicide treatment.
(§7) Values in the table below are mean values of at least 2 replicates.
Reduction[Difference]=herbicide damage without safener−herbicide damage with safener Reduction[%]=(Reduction[Difference]*100)/herbicide damage without safener a) Plant Species, Variety: TRZAS Triso, Safener (SAF): Isoxadifen-Ethyl

[2] = tested on: HORVS Montoya; test: as above; type: in vivo, spring barley; parameters: key to Reduction [Difference]: % crop damage without safener minus % damage with safener; conditions: for Reduction [%] / Reduction [Difference]: isoxadifen-ethyl 0.25 g a.i./kg seed; for HER effect + SAF: isoxadifen-ethyl seed treatment 0.25 g a.i./kg seed; for HER effect: no safener
Procedure: as §1, §2, §3, §4, §5, §6, §7
Reduction[Difference]=herbicide damage without safener−herbicide damage with safener Reduction[%]=(Reduction[Difference]*100)/herbicide damage without safener b) Plant Species, Variety: HORVS Montoya, Safener (SAF): Isoxadifen-Ethyl

[3] = tested on: ZEAMA Abraxas; test: Tank-mix post-emergence crop damage, greenhouse, visual assessment; type: in vivo, maize; parameters: key to Reduction [Difference]: % injury reduction: damage without minus with safener (0–100% scale); conditions: for HER effect + SAF / Reduction [%] / Reduction [Difference]: Final; for HER effect: no safener, Final assessment
Procedure: (§8) Seeds of crops (spring wheat, TRZAS; spring barley, HORVS; maize, ZEAMA) were placed in sandy loam soil in peat pots, covered with soil and cultivated in a greenhouse under good growth conditions. Two to three weeks after sowing, the test plants were treated at the 1 to 3-leaf stage. The herbicide/safener active compound combinations according to the invention, formulated as wettable powders or emulsion concentrates, and, in parallel tests, the correspondingly formulated individual active compounds were sprayed onto the green parts of the plants in various dosages using an amount of water of 300 l/ha (converted).
(§9) The pots were returned under good growing conditions in a glasshouse and a visual assessment of herbicidal effects was made at intervals from 1 to 3 weeks after herbicide application (DAT=days after treatment). Assessment was on a percentage basis in comparison with untreated control plants (0%=no injury, 100%=complete kill).
(§10) Reduction[Difference]=herbicide damage without safener−herbicide damage with safener Reduction[%]=(Reduction[Difference]*100)/herbicide damage without safener
b) Plant Species, Variety: ZEAMA Abraxas, Safener (SAF): Isoxadifen-Ethyl

[4] = tested on: ZEAMA Sileno; test: as above; type: in vivo, maize; parameters: key to Reduction [Difference]: % points: herbicide damage without safener − damage with safener; conditions: for HER effect + SAF / Reduction [%] / Reduction [Difference]: Final; for HER effect: no safener, Final assessment
Procedure: as §8, §9, §10
a) Plant Species, Variety: ZEAMA Sileno, Safener (SAF): Isoxadifen-Ethyl

[5] = tested on: ZEAMA Sileno; test: Safener seed treatment, pre-emergence herbicide, crop damage; type: in vivo, maize; parameters: key to Reduction [Difference]: % crop damage without safener minus % damage with safener; conditions: HER 80 g a.i./ha pre-emergence; for Reduction [%] / Reduction [Difference]: isoxadifen-ethyl 0.25 g a.i./kg seed; for HER effect + SAF: isoxadifen-ethyl seed treatment 0.25 g a.i./kg seed; for HER effect: no safener
Procedure: as §1, §2, §3, §4, §5, §6, §7
Reduction[Difference]=herbicide damage without safener−herbicide damage with safener Reduction[%]=(Reduction[Difference]*100)/herbicide damage without safener […]
c) Plant Species, Variety: ZEAMA Sileno, Safener (SAF): Isoxadifen-Ethyl

[6] = HER 15 g a.i./ha pre-emergence, 11 DAT (Interim)
[7] = HER 15 g a.i./ha pre-emergence, 21 DAT (Final)
[8] = HER 32 g a.i./ha + isoxadifen-ethyl 100 g a.i./ha
[9] = HER 32 g a.i./ha, isoxadifen-ethyl 100 g a.i./ha
[10] = HER 8 g a.i./ha + isoxadifen-ethyl 50 g a.i./ha
[11] = HER 8 g a.i./ha, isoxadifen-ethyl 50 g a.i./ha
[12] = HER 5 g a.i./ha pre-emergence, 21 DAT (Final)
[13] = HER 2 g a.i./ha, isoxadifen-ethyl 100 g a.i./ha

Structure (SMILES)	HER effect + SAF [3, 8]	Reduction [%] [3, 9]	Reduction [Difference] [3, 9]	HER effect ([3]; HER 32 g a.i./ha)	HER effect + SAF [3, 10]	Reduction [%] [3, 11]	Reduction [Difference] [3, 11]	HER effect ([3]; HER 8 g a.i./ha)	further results
CSCCOC(=O)C1C=CC(NC(=O)C2(C(F)(F)F)CC(c3cc(F)cc(F)c3)=NO2)C1 (stereo not shown) [Example 1.7]	–	–	–	–	–	–	–	–	Reduction [%] ([1]; 11 DAT (Interim)): 56%; Reduction [Difference] ([1]; 11 DAT (Interim)): 25; HER effect + SAF ([1]; 11 DAT (Interim)): 20%; HER effect ([1]; 11 DAT (Interim)): 45%; Reduction [%] [2, 6]: 50%; Reduction [Difference] [2, 6]: 25; Reduction [%] [2, 7]: 83%; Reduction [Difference] [2, 7]: 25; HER effect + SAF [2, 6]: 25%; HER effect + SAF [2, 7]: 5%; HER effect [2, 6]: 50%; HER effect [2, 7]: 30%
CC1(C(=O)NC2C=CC(C(=O)OCCCl)C2)CC(c2cc(F)cc(F)c2)=NO1 (mixture of isomers) [Example 1.47]	38%	39%	24	62%	–	–	–	–	–
COCCOC(=O)C1C=CC(NC(=O)C2(CCl)CC(c3cc(F)cc(F)c3)=NO2)C1 (stereo not shown) [Example 1.1]	45%	53%	50	95%	20%	78%	73	93%	–
CC1(C(=O)NC2COC(C(=O)OCc3cccc(F)c3)C2)CC(c2cc(F)cc(F)c2)=NO1 (mixture of isomers) [Example 1.76]	–	–	–	–	33%	63%	57	90%	–
C=CC1(C(=O)NC2COC(C(=O)OC)C2)CC(c2cc(C)cc(F)c2)=NO1 (mixture of isomers) [Example 1.71]	35%	62%	56	91%	17%	71%	41	58%	–
COCCOC(=O)C1C=CC(NC(=O)C2(C)CC(c3cc(Cl)cc(C#N)c3)=NO2)C1 (stereo not shown) [Example 1.5]	–	–	–	–	–	–	–	–	HER effect + SAF [4, 10]: 18%; Reduction [%] [4, 11]: 79%; Reduction [Difference] [4, 11]: 67; HER effect ([4]; HER 8 g a.i./ha): 85%; HER effect + SAF [4, 8]: 47%; Reduction [%] [4, 9]: 51%; Reduction [Difference] [4, 9]: 49; HER effect ([4]; HER 32 g a.i./ha): 96%; Reduction [%] ([1]; 11 DAT (Interim)): 80%; Reduction [Difference] ([1]; 11 DAT (Interim)): 20; HER effect + SAF ([1]; 11 DAT (Interim)): 5%; HER effect ([1]; 11 DAT (Interim)): 25%; Reduction [%] ([5]; 14 DAT): 50%; Reduction [Difference] ([5]; 14 DAT): 30; Reduction [%] ([5]; 26 DAT): 56%; Reduction [Difference] ([5]; 26 DAT): 25; HER effect + SAF ([5]; 14 DAT): 30%; HER effect + SAF ([5]; 26 DAT): 20%; HER effect ([5]; 14 DAT): 60%; HER effect ([5]; 26 DAT): 45%
C=CC1(C(=O)NC2C=C(C(=O)OCCOC)OC2)CC(c2cc(C)cc(F)c2)=NO1 (stereo not shown) [Example 1.89]	17%	62%	28	45%	3%	90%	27	30%	–
C=CC1(C(=O)NC2C=CC(C(=O)O)C2)CC(c2cc(F)cc(F)c2)=NO1 (stereo not shown) [Example 1.58]	15%	84%	80	95%	17%	73%	45	62%	–
CC1(C(=O)NC2C=CC(C(=O)O)C2)CC(c2cc(F)cc(F)c2)=NO1 (stereo not shown) [Example 1.36]	–	–	–	–	–	–	–	–	Reduction [%] ([1]; 11 DAT (Interim)): 29%; Reduction [Difference] ([1]; 11 DAT (Interim)): 20; Reduction [%] ([1]; 21 DAT (Final)): 64%; Reduction [Difference] ([1]; 21 DAT (Final)): 45; HER effect + SAF ([1]; 11 DAT (Interim)): 50%; HER effect + SAF ([1]; 21 DAT (Final)): 25%; HER effect ([1]; 11 DAT (Interim)): 70%; HER effect ([1]; 21 DAT (Final)): 70%; Reduction [%] [2, 12]: 44%; Reduction [Difference] [2, 12]: 20; HER effect + SAF [2, 12]: 25%; HER effect [2, 12]: 45%; Reduction [%] [2, 7]: 43%; Reduction [Difference] [2, 7]: 30; HER effect + SAF [2, 7]: 40%; HER effect [2, 7]: 70%
C=CC1(C(=O)NC2C=C(C(=O)OCC#N)OC2)CC(c2cc(F)cc(F)c2)=NO1 (stereo not shown) [Example 1.91]	–	–	–	–	–	–	–	–	Reduction [%] ([1]; 21 DAT (Final)): 75%; Reduction [Difference] ([1]; 21 DAT (Final)): 30; HER effect + SAF ([1]; 21 DAT (Final)): 10%; HER effect ([1]; 21 DAT (Final)): 40%
C=CC1(C(=O)NC2C=C(C(=O)OC)OC2)CC(c2cc(C)cc(C)c2)=NO1 (stereo not shown) [Example 1.90]	–	–	–	–	–	–	–	–	HER effect + SAF ([3]; HER 2 g a.i./ha + isoxadifen-ethyl 100 g a.i./ha): 5%; Reduction [%] [3, 13]: 80%; Reduction [Difference] [3, 13]: 20; HER effect ([3]; HER 2 g a.i./ha): 25%
COC(=O)C1C=CC(NC(=O)C2(C(F)(F)F)CC(c3cc(C)cc(F)c3)=NO2)C1 (mixture of isomers) [Example 1.22]	0%	100%	20	20%	–	–	–	–	–
C=CC1(C(=O)NC2COC(C(=O)OCc3ccc(OC)cc3)C2)CC(c2cc(C)cc(F)c2)=NO1 (mixture of isomers) [Example 1.86]	–	–	–	–	12%	63%	20	32%	–
C=CC1(C(=O)NC2CC=C(C(=O)OC)C2)CC(c2cc(F)cc(F)c2)=NO1 (mixture of isomers) [Example 1.60]	57%	39%	37	94%	20%	64%	35	55%	–
